Our source for the IC50 values is BindingDB's records for patent US20240109930 (Idorsia Pharmaceuticals, 2024).

For assay [1], the target named is Galectin-1 (Homo sapiens, UniProt P09382). Kind of assay: Inhibitory Activity Assay. The procedure: (§1) Briefly, compounds are serially diluted in DMSO (working dilutions). ASF-coated 384well plates are supplemented with 22.8 μL/well of biotinylated hGal-3 or hGal-1 in assay buffer (i.e. 300-1000 ng/mL biotinylated hGal-3 or hGal-1) to which 1.2 μL of compound working dilutions are added and mixed. Plates are incubated for 3 hours at 4° C., then washed with cold assay buffer (3×50 uL), incubated for 1 hour with 25 μL/well of a streptavidin-peroxidase solution (diluted in assay buffer to 80 ng/mL) at 4° C., followed by further washing steps with assay buffer (3×50 uL). Finally, 25 μL/well of ABTS substrate is added.
Chain of Galectin-1 (P09382 whole entry): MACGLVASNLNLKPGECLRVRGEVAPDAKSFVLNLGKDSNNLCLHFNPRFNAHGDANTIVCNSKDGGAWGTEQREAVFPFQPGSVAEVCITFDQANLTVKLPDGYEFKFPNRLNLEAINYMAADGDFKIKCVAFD

The target in assay [2] is Galectin-3 (Homo sapiens, UniProt P17931). Description: Inhibitory Activity Assay. The procedure: as §1
Chain of Galectin-3 (P17931 whole entry): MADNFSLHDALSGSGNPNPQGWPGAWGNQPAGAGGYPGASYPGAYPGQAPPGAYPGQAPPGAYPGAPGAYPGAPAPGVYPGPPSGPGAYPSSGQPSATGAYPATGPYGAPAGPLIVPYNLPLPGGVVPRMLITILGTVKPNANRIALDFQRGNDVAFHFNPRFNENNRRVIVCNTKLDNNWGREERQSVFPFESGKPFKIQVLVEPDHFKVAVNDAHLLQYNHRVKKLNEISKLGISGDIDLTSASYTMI

`COC(=O)C(C)(C)n1cc(C[C@H]2OC(CO)=C(O)C(N3C[C@H](c4ccc(C)c(F)c4F)NN3)=C2OC)nn1` [US20240109930, Example 1.1.10.]: the values for the IC50 in assay [1] and in assay [2] were 4.37 µM and 0.06 µM, respectively. `COC(=O)C(C)(C)n1cc(C[C@H]2OC(CO)=C(O)C(N3C[C@H](c4ccc(Cl)c(F)c4F)NN3)=C2OC)nn1` [US20240109930, Example 2.1.10.]: the IC50 (commonly the concentration needed to halve the response being measured) in assay [1] was determined as 2.26 µM; in assay [2], 0.06 µM. The compound `CO[C@@H]1[C@@H](n2cc(-c3ccc(Cl)c(F)c3F)nn2)[C@@H](O)[C@@H](CO)O[C@@H]1Cc1cn(C2COCCC2(F)F)nn1` (some centres undefined) [US20240109930, Example 2.1.73.A] displayed an IC50 in assay [2] of 0.03 µM. On the same count and under the same terms, the result for `CO[C@@H]1[C@@H](n2cc(-c3ccc(Cl)c(F)c3F)nn2)[C@@H](O)[C@@H](CO)O[C@@H]1Cc1cn([C@@H]2CC[C@H]2F)nn1` [US20240109930, Example 2.1.88.C] reads 0.05 µM. For `CCC1(c2cn(C[C@H]3O[C@H](CO)[C@H](O)[C@H](n4cc(-c5ccc(Cl)c(F)c5F)nn4)[C@H]3OC)nn2)COC1` [US20240109930, Example 2.2.38.], the figures for the half-maximal inhibitory concentration (IC50) in assay [1] and in assay [2] were 1.4 µM and 0.03 µM, respectively.

With `CO[C@@H]1[C@@H](n2cc(-c3ccc(Cl)c(F)c3F)nn2)[C@@H](O)[C@@H](CO)O[C@@H]1Cn1cc(C2(CF)CC2)nn1` [US20240109930, Example 2.2.46.], the IC50 in assay [1] stood at 2.3 µM; in assay [2], 0.06 µM.

`CO[C@@H]1[C@@H](n2cc(-c3ccc(Cl)c(F)c3F)nn2)[C@@H](O)[C@@H](CO)O[C@@H]1Cn1cc([C@H]2C[C@@H](NC(=O)OC(C)(C)C)C2)nn1` [US20240109930, Example 2.2.86.]: the figures for the IC50 in assay [1] and in assay [2] were 2.57 µM and 0.06 µM, respectively. For `COC1=C(n2cc(-c3ccc(C#N)c(F)c3F)nn2)C(O)=C(CO)O[C@@H]1C[C@H]1CN(C2(C(F)F)CCC2)NN1` [US20240109930, Example 5.1.43.] the same measures were 1.32 µM and 0.03 µM.
